For one data set, the target named is T1, 5-HT1A receptors (Rattus norvegicus, UniProt P19327).
T1 construct: 5-HT1A receptors in membranes from rat brain minus cerebellum; from tissue; host or cells: rat brain minus cerebellum, membranes
T1 sequence (P19327 1-422): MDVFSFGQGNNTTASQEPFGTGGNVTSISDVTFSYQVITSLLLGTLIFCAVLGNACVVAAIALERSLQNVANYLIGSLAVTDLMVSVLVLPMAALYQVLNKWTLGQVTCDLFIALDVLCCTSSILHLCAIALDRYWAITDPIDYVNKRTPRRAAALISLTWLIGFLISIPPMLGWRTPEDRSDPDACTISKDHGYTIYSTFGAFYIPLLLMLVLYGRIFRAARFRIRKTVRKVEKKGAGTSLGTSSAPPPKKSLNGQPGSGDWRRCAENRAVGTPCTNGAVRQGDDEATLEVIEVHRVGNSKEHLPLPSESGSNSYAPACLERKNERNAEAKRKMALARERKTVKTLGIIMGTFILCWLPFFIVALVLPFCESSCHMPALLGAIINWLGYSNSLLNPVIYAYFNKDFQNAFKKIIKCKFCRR
Kind of data set: Inhibition of 3H-8-OH-DPAT binding to serotonin 5-HT1A receptors in rat brain in vitro. As to the method:
By this method the inhibition by drugs of the binding of the 5-HT1A agonist ^3H-8-OH-DPAT (1 nM) to 5-HT1A receptors in membranes from rat brain minus cerebellum is determined in vitro . Accordingly, this is a test for affinity for the 5-HT1A receptor. The test is performed as described by Hyttel et al., Drug. Dev. Res., 1988, 15, 389-404.

The target in the next data set is T2, 5-HT2A receptors (Rattus norvegicus, UniProt P14842).
T2 construct: 5-HT2A receptors in membranes from rat is determined in vitro; from tissue; host or cells: rat cortex membranes
T2 sequence (P14842 whole entry): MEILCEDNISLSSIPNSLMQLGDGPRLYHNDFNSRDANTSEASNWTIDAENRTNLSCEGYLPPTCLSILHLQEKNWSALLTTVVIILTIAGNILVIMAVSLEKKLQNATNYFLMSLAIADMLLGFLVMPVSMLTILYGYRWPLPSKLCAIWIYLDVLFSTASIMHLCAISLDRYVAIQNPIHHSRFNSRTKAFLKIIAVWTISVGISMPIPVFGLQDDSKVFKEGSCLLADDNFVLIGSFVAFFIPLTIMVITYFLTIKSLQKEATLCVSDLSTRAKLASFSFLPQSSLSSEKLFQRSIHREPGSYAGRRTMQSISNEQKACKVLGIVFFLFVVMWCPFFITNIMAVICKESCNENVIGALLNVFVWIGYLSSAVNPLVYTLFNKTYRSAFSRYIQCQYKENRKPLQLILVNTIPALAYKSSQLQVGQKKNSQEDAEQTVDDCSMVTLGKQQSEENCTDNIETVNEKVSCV
Kind of data set: Inhibition of 3H-Ketanserin binding to 5-HT2 receptors in rat cortex in vitro. The settings on record: 3H-Ketanserin 0.5 nM; membranes from rat cortex; read-out: 3H Ketanserin (5-HT2A) binding, IC50. As to the method:
Inhibition of ^3H-Ketanserin Binding to 5-HT2 Receptors in Rat Cortex in vitro.
By this method the inhibition by drugs of the binding of ^3H-Ketanserin (0.5 nM) to 5-HT2A receptors in membranes from rat is determined in vitro .

Setting [1] is: 3H-8-OH-DPAT 1 nM, membranes from rat brain minus cerebellum, read-out: 3H 8-OH DPAT (5-HT1A) binding, IC50.

Counter-ions that a name gives are not always drawn. Like-named read-outs stand apart in the source and are kept apart here.

For `CC(=O)Nc1ccc2c(c1)C(CN1CCC(c3c[nH]c4ccc(F)cc34)CC1)CC2` (centres unmarked) [Compound 11c, 3-[1-(6-Acetylaminoindan-1-ylmethyl)piperidin-4-yl]-5-fluoro-1H-indole], the IC50 (in general, the midpoint of a concentration-inhibition curve) at 5-HT1A receptors (setting [1]) came to 16 nM; at 5-HT2A receptors it was 15 nM. The matching figures for `CC(=O)Nc1ccc2c(c1)C(CN1CC=C(c3c[nH]c4ccc(F)cc34)CC1)CS2` (centres unmarked) [Compound 11d, 3-[1-(5-Acetylamino-2,3-dihydrobenzothiophen-3-ylmethyl)-1,2,3,6-tetrahydropyridin-4-yl]-5-fluoro-1H-indole]: 29 nM and 15 nM. As to `CC(=O)Nc1ccc2c(c1)C(CN1CC=C(c3ccc(Cl)cc3)CC1)CC2` (centres unmarked) (as salt: oxalate), the melting point (in general, the temperature, or range, at which the solid turns liquid) fell in the range of 223 to 226 °C. Still for that read-out and setting: in the case of `Nc1ccc2c(c1)C(CN1CC=C(c3ccc(F)cc3)CC1)CC2` (centres unmarked) it was 78 to 84 °C. As for `CC(=O)Nc1ccc2c(c1)C(CN1CCC(c3c[nH]c4ccc(Cl)cc34)CC1)CS2` (centres unmarked) [Compound 11a, 3-[1-(5-Acetylamino-2,3-dihydrobenzothiophen-3-ylmethyl)piperidin-4-yl]-5-chloro-1H-indole], the results for the IC50 at 5-HT1A receptors (setting [1]) and at 5-HT2A receptors were 28 nM and 42 nM, respectively. With `O=C1CCCN1c1ccc2c(c1)C(CN1CCC(c3ccc(F)cc3)CC1)CC2` (centres unmarked) [Compound 12a, 4-(4-Fluorophenyl)-1-[6-(1-pyrrolidin-2-onyl)indan-1-ylmethyl]piperidine], the IC50 on 5-HT1A receptors (setting [1]) stood at 340 nM; on 5-HT2A receptors it was 3.5 nM.

On to `NC(=O)Nc1ccc2c(c1)C(CN1CCC(c3ccc(F)cc3)CC1)CC2` (centres unmarked) [Compound 7a, 1-(6-Aminocarbonylaminoindan-1-ylmethyl)-4-(4-fluorophenyl)piperidine], for which the half-inhibitory concentration (IC50) was 13 nM at 5-HT1A receptors (setting [1]) and 2.6 nM on 5-HT2A receptors. The molecule `CS(=O)(=O)Nc1ccc2c(c1)C(CN1CC=C(c3ccc(Cl)cc3)CC1)CC2` (centres unmarked) (as salt: oxalate) [Compound 4m, 4-(4-Chlorophenyl)-1-(6-methansulphonylaminoindan-1-ylmethyl)-1,2,3,6-tetrahydropyperidine] showed a melting point of 176 to 178 °C. Molecule `CCOC(=O)Nc1ccc2c(c1)C(CN1CCC(c3ccc(F)cc3)CC1)CC2` (centres unmarked) (as salt: fumarate) [Compound 4l, 1-(6-Ethyloxycarbonylaminoindan-1-ylmethyl)-4-(4-fluorophenyl)piperidine] returned a melting point of 191 to 193 °C. Same read-out and setting: the same measure for `CC(=O)Nc1ccc2c(c1)C(CN1CC=C(c3c[nH]c4ccc(F)cc34)CC1)CS2` (centres unmarked) (as salt: oxalate) [Compound 11d, 3-[1-(5-Acetylamino-2,3-dihydrobenzothiophen-3-ylmethyl)-1,2,3,6-tetrahydropyridin-4-yl]-5-fluoro-1H-indole]: 155 to 165 °C. Turning to `CC(=O)Nc1ccc2c(c1)C(CN1CCC(c3c[nH]c4cc(Cl)ccc34)CC1)CC2` (centres unmarked) [Compound 11f, 3-[1-(6-Acetylaminoindan-1-ylmethyl)piperidin-4-yl]-6-chloro-1H-indole], the IC50 at 5-HT1A receptors (setting [1]) came to 8 nM; at 5-HT2A receptors, 21 nM. Molecule `CC(=O)Nc1ccc2c(c1)C(CN1CC=C(c3c[nH]c4ccc(Cl)cc34)CC1)CS2` (centres unmarked) (as salt: oxalate) [Compound 11b, 3-[1-(5-Acetylamino-2,3-dihydrobenzothiophen-3-ylmethyl)-1,2,3,6-tetrahydropyridin-4-yl]-5-chloro-1H-indole] gave a melting point of 214 to 216 °C.

As to `CN(C)C(=O)Nc1ccc2c(c1)C(CN1CCC(c3ccc(F)cc3)CC1)CC2` (centres unmarked) [Compound 6a, 1-(6-Dimethylaminocarbonylaminoindan-1-ylmethyl)-4-(4-fluorophenyl)piperidine], the IC50 at 5-HT1A receptors (setting [1]) came to 1200 nM; on 5-HT2A receptors, 9.1 nM. For `CNc1ccc2c(c1)C(CN1CCC(c3ccc(F)cc3)CC1)CC2` (centres unmarked) [Compound 16a, 4-(4-Fluorophenyl)-1-(6-methylaminoindan-1-ylmethyl)piperidine] the same measures were 170 nM and 1.6 nM. As to `CC(=O)Nc1ccc2c(c1)C(CN1CC=C(c3c[nH]c4cc(Cl)ccc34)CC1)CC2` (centres unmarked) (as salt: oxalate) (hydrate or solvate) [Compound 11e, 3-[1-(6-Acetylaminoindan-1-ylmethyl)-1,2,3,6-tetrahydropyridin-4-yl]-6-chloro-1H-indole], the melting point is 151 to 164 °C. On the same count and under the same terms, the same measure for `CNC(=O)Nc1ccc2c(c1)C(CN1CCN(c3ccc4c(c3)OCO4)CC1)CC2` (centres unmarked) (as salt: oxalate) [Compound 5d, 1-(6-Methylaminocarbonylaminoindan-1-ylmethyl)-4-(3,4-methylendioxyphenyl)piperazine]: 132 to 133 °C; for `CC(=O)Nc1ccc2c(c1)C(CN1CCC(n3ccc4cc(Cl)ccc43)CC1)CC2` (centres unmarked): 189 to 191 °C.

Take `CC(=O)Nc1ccc2c(c1)C(CN1CCC(c3cn(C)c4cc(Cl)ccc34)CC1)CC2` (centres unmarked) [Compound 15b, 3-[1-(6-Acetylaminoindan-1-ylmethyl)piperidin-4-yl]-6-chloro-1-m ethyl-1H-indole]: the inhibition (usually the drop in the measured response relative to a control, in per cent) at 0.1 µM on 5-HT1A receptors (read-out: 3H 8-OH DPAT (5-HT1A) binding, % inhibition of binding at 100 nM, at 100 nM, 3H-8-OH-DPAT 1 nM, rat brain membranes) is 25%. On 5-HT2A receptors, the half-inhibitory concentration (IC50) came out at 300 nM. Take `Nc1ccc2c(c1)C(CN1CCN(c3ccc(Cl)cc3)CC1)CC2` (centres unmarked) [Compound 2e, 1-(6-Aminoindan-1-ylmethyl)-4-(4-chlorophenyl)piperazine]: the melting point fell in the range of 98 to 109 °C. For `CC(=O)Nc1ccc2c(c1)C(CN1CCC(c3cn(C)c4cc(Cl)ccc34)CC1)CC2` (centres unmarked) (as salt: oxalate) [Compound 15b, 3-[1-(6-Acetylaminoindan-1-ylmethyl)piperidin-4-yl]-6-chloro-1-m ethyl-1H-indole], the melting point lay in the range of 202 to 205 °C. In the case of `COc1ccccc1N1CCN(CC2CCc3ccc(NC(C)=O)cc32)CC1` (centres unmarked) [Compound 4g, 1-(6-Acetylaminoindan-1-ylmethyl)-4-(2-methoxyphenyl)piperazine], the IC50 on 5-HT1A receptors (setting [1]) came to 31 nM; at 5-HT2A receptors it was 280 nM. For `Nc1ccc2c(c1)C(CN1CCC(c3ccc(F)cc3)CC1)CC2` (centres unmarked) [Compound 2a] the same measures were 480 nM and 2.5 nM. As for `CC(=O)Nc1ccc2c(c1)C(CN1CCC(c3c[nH]c4ccc(F)cc34)CC1)CC2` (centres unmarked) (as salt: oxalate) [Compound 11c, 3-[1-(6-Acetylaminoindan-1-ylmethyl)piperidin-4-yl]-5-fluoro-1H-indole], the melting point lay in the range of 145 to 149 °C.

Take `CC(=O)Nc1ccc2c(c1)C(CN1CC=C(c3c[nH]c4ccc(Cl)cc34)CC1)CC2` (centres unmarked) [Compound 11g, 3-[1-(6-Acetylaminoindan-1-ylmethyl)-1,2,3,6-tetrahydropyridin-4-yl]-5-chloro-1H-indole]: the IC50 on 5-HT1A receptors stood at 26 nM; on 5-HT2A receptors, 180 nM. Turning to `CC(=O)Nc1ccc2c(c1)C(CN1CCN(c3ccccc3Cl)CC1)CC2` (centres unmarked) (as salt: hydrochloride) [Compound 4f, 1-(6-Acetylaminoindan-1-ylmethyl)-4-(2-chlorophenyl)piperazine], the melting point was 195 to 203 °C. Regarding `CC(=O)Nc1ccc2c(c1)C(CN1CCC(c3c[nH]c4cc(Cl)ccc34)CC1)CC2` (centres unmarked) (as salt: oxalate) [Compound 11f, 3-[1-(6-Acetylaminoindan-1-ylmethyl)piperidin-4-yl]-6-chloro-1H-indole], the melting point lay in the range of 122 to 130 °C. As for `COc1ccccc1N1CCN(CC2CCc3ccc(NC(C)=O)cc32)CC1` (centres unmarked) (as salt: oxalate) [Compound 4g, 1-(6-Acetylaminoindan-1-ylmethyl)-4-(2-methoxyphenyl)piperazine], the melting point lay in the range of 210 to 213 °C. Still for that read-out and setting: the same measure for `CC(=O)Nc1ccc2c(c1)C(CN1CCN(c3ccc4c(c3)OCO4)CC1)CC2` (centres unmarked) [Compound 4q, 1-(6-Acetylaminoindan-1-ylmethyl)-4-(3,4-methylenedioxyphenyl)piperazine]: 188 to 189 °C; for `CC(=O)Nc1ccc2c(c1)C(CN1CC=C(c3c[nH]c4ccc(Cl)cc34)CC1)CC2` (centres unmarked) (as salt: oxalate) [Compound 11g, 3-[1-(6-Acetylaminoindan-1-ylmethyl)-1,2,3,6-tetrahydropyridin-4-yl]-5-chloro-1H-indole]: 220 to 223 °C. On the same count and under the same terms, the same measure for `CC(=O)Nc1ccc2c(c1)C(CN1CCC(O)(c3ccc(Cl)c(C(F)(F)F)c3)CC1)CC2` (centres unmarked) (as salt: oxalate): 163 to 165 °C; for `Nc1ccc2c(c1)C(CN1CCC(c3ccc(F)cc3)CC1)CC2` (centres unmarked) (as salt: hydrochloride) [Compound 2a]: 198 to 201 °C; for `CNC(=S)Nc1ccc2c(c1)C(CN1CCC(c3ccc(F)cc3)CC1)CC2` (centres unmarked) (as salt: fumarate) [Compound 5c, 4-(4-Fluorophenyl)-1-(6-methylaminothiocarbonylaminoindan-1-ylmethyl)piperidine]: 181 to 183 °C.
